The text below walks through data of ChEMBL document CHEMBL5614369, “Design, synthesis and biological evaluation of Nrf2 modulators for the treatment of glioblastoma multiforme” (Bioorg Med Chem, 2024).

Experiment [1] deals with U-87 MG. The experiment in a line: Antitumor activity against human U87 cells assessed as residual cell viability at 100 uM incubated for 48 hrs by CCK-8 assay relative to control. Format: functional, U-87MG ATCC. (In general: Tetrazolium assays rely on reduction of a dye to a coloured formazan, in cell work by metabolically active cells.)
In experiment [2] the test system is U-87 MG. The experiment in a line: Antitumor activity against human U87 cells assessed as reduction in cell viability incubated for 48 hrs by CCK-8 assay. Format: functional, cell-based, U-87MG ATCC.
The subject of experiment [3] is U-87 MG. In words: Cytotoxicity against human U87 cells assessed as reduction in cell count at 12.5 to 200 uM incubated for 48 hrs by crystal violet staining based microscopic analysis. Format: functional. The settings on record: U-87MG ATCC, dose 12.5-200 µM.
In experiment [4] the test system is U-87 MG. In words: Anti-tumor activity against human U87 cells assessed as reduction in cell proliferation by measuring reduction in green fluorescence intensity at 50 to 100 uM incubated for 48 hrs by Calcein AM dye based fluorescence microscopy. Type of experiment: functional. The settings on record: U-87MG ATCC, dose 50-100 µM.

For orientation: IC50 means the concentration that gives 50% inhibition.

Active and inactive are the calls of the source. No cut-off for these calls is given here.

Turning to `Cn1nnc2c(C(N)=O)ncn2c1=O` [TEMOZOLOMIDE], in experiment [1], the Activity amounted to 47%.

As for `Oc1cc(O)cc(/C=C/c2ccccc2)c1` [PINOSYLVIN], the IC50 in experiment [2] was 89 µM. Further, the Activity result in experiment [2] (U-87MG ATCC) is “Dose-Dependent Effect”; in experiment [1] it was 90%. In addition, the result in experiment [3] and in experiment [4] was Active.
